Measured values taken from publication PMC5130005, “Indolin-2-one compounds targeting thioredoxin reductase as potential anticancer drug leads” (Oncotarget, 2016).

Tests used:
yeast GR = molecular target: T1, yeast GR (Saccharomyces cerevisiae, UniProt P41921); test: in vitro yeast GR activity (glutathione reduction assay); format: biochemical; conditions: 60 min incubation, 1-100 μM, 20 nM yeast GR, 200 μM NADPH
T1 construct: purchased Sigma
T1 sequence (P41921 17-483 limits assumed): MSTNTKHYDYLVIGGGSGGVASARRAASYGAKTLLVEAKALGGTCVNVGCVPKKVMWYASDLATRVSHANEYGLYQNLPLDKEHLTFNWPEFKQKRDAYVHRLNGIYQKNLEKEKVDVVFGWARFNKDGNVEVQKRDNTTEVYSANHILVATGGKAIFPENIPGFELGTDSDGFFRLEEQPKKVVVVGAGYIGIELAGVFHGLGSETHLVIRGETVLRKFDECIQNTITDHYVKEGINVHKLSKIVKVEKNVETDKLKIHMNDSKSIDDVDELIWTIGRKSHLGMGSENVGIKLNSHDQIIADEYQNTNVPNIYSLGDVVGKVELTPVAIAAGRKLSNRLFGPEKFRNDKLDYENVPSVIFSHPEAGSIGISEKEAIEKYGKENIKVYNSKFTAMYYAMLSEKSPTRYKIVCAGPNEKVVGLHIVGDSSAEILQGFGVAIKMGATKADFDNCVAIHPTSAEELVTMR
Protocol: To determine in vitro yeast GR activity, compounds of concentrations 1-100 μM were incubated with 20 nM yeast GR and 200 μM NADPH in a volume of 100 μl phosphate buffer (0.1 M sodium phosphate, 2 mM EDTA pH 7.5) for 1 h at room temperature. At the end of the incubation, 100 μl of […] GSSG (final concentration 500 μM) and 200 μM NADPH in phosphate buffer was added to each well. NADPH consumption was monitored by measurement of absorbance at 340 nm using the VersaMax microplate reader. The results were calculated based on decrease in absorbance in the initial 90 s and expressed as a percentage of the enzyme activity of the DMSO-treated sample. For determination of cellular GR activity, 25 μg of cell lysate was mixed with a solution of GSSG and NADPH in phosphate buffer to a final volume of 200 μl (final GSSG and NADPH concentrations 1 mM and 200 μM respectively). The enzyme activity was determined by measuring the decrease in absorbance at 340 nm for 10 min at 37°C and expressed as a percentage of the enzyme activity of that of the DMSO-treated sample.

TrxR in HCT 116 cells = molecular target: T2, TrxR in HCT 116 cells (Homo sapiens, UniProt Q16881); test: cellular TrxR activity in HCT 116 cell lysates (insulin reduction assay); format: cell-based; conditions: for cellular TrxR activity, HCT 116 cells: 10 h treatment, 20, 30, 40 and 50 μM
T2 construct: Lysates of HCT 116 cells treated with indicated concentrations of selected SCA analogs for 10 h; endogenous in cells; host or cells: HCT 116
T2 sequence (Q16881 1-499 isoform Q16881-5): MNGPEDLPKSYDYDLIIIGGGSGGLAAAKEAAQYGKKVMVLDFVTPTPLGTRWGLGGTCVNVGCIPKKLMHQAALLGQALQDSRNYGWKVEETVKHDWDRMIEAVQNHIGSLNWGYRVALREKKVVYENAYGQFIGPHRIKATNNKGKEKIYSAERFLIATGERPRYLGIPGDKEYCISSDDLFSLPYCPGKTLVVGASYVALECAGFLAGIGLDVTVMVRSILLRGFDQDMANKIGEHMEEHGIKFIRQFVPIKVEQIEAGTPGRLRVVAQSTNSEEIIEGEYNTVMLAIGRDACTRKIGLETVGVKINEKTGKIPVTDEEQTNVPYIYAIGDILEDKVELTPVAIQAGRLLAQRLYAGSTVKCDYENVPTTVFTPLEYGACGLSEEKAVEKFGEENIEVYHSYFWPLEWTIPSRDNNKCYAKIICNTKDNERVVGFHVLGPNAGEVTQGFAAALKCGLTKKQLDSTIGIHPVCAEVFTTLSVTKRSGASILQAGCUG
Protocol: Cells were seeded onto 100 mm or 60 mm culture plates and upon reaching ~70% confluency, they were subjected to drug treatment for indicated durations. Pellets of compound-treated or DMSO control cells comprising both attached and floating cells were collected and lysed in lysis buffer (25 mM Tris-HCl pH 7.5, 100 mM NaCl, 2.5 mM EDTA, 2.5 mM EGTA, 20 mM NaF, 1 mM Na3VO4, 20 mM sodium β-glycerophosphate, 10 mM sodium pyrophosphate, 0.5% Triton X-100) with freshly added protease inhibitor cocktail (Roche Diagnostics). Prior to being used in Western blot analysis and/or cellular TrxR, GR, Trx and GPx activity determination, lysates were precleared by centrifugation and protein concentrations were determined using a modified Bradford assay (Bio-Rad Laboratories) as described in the manufacturer's manual. This procedure for collecting whole cell lysate was used for all experiments except for the Trx-redox state determination experiment. Equal amounts of protein (50 μg) in each lysate sample were separated by SDS-PAGE, followed by electroblotting onto nitrocellulose membranes. Electroblotted proteins on membranes were probed with a primary antibody and subsequently by a secondary antibody conjugated to HRP.
Freshly collected cell lysates were used for measurement of activity of cellular Trx and TrxR. To measure TrxR activity, in each well of a 96-well plate, 25 μg of cell lysate was incubated in a final volume of 50 μl containing 85 mM Hepes (pH 7.6), 0.3 mM insulin, 10 μM rhTrx1, 2.5 mM EDTA and 660 μM NADPH for 40 min at 37°C. Controls containing lysates and all reaction reagents except rhTrx1 for each lysate sample were also set up. 200 μl of 1 mM DTNB in 6 M guanidine-HCl, 200 mM Tris-HCl pH 8.0 solution was added to quench the reaction. The amount of free thiols generated from insulin reduction was determined by DTNB reduction at 412 nm using the VersaMax microplate reader. To measure Trx activity, procedures were carried out similar to those for determining cellular TrxR activity, except that the cell lysates were incubated for 20 min with 300 nM recombinant rat TrxR in place of rhTrx1. Controls containing lysates and all reaction reagents except recombinant rat TrxR for each lysate sample were also set up. For each sample, Trx or TrxR activity was calculated as the absorbance at 412 nm subtracted from that of the corresponding control and expressed as a percentage of the activity measured in DMSO-treated cells.

Compound	yeast GR activity (yeast GR)	cellular TrxR activity, HCT 116 cells (TrxR in HCT 116 cells)	cellular TrxR activity at 40 and 50 μM, HCT 116 cells (TrxR in HCT 116 cells; 10 h treatment, 40 and 50 μM, p < 0.05 vs DMSO)
CCCCN1C(=O)/C(=C/C(C)=O)c2ccccc21 [Compound 4]	uninhibited	decrease in TrxR activity in a dose-dependent manner	
CC(=O)C=C1C(=O)N(C)c2ccccc21 [Compound 1, 1-methyl-3(2-oxopropylidene)indolin-2-one]	uninhibited	did not cause apparent inhibition	
CC(=O)/C=C1/C(=O)N(Cc2ccccc2)c2ccccc21 [Compound 5]	uninhibited	decrease in TrxR activity in a dose-dependent manner	significant reduction
CN1C(=O)/C(=C/C(=O)c2ccccc2)c2ccccc21 [Compound 6]	uninhibited	did not cause apparent inhibition	
